Like-named read-outs stand apart in the source and are kept apart here. Positions of bridges follow the written chain, without caps; N, C: chain ends. Non-standard residues stand in square brackets, D forms with d. Residues, ends and D or L forms follow the SMILES beside them. *: point of attachment. X4 = CC(=O)N[C@H]1[C@H](OCCCCC(=O)NCCCNCC(=O)CCOCC(COCCC(=O)NCCCNC(=O)CCCCO[C@@H]2O[C@H](CO)[C@H](O)[C@H](O)[C@H]2NC(C)=O)(COCCC(=O)NCCCNC(=O)CCCCO[C@@H]2O[C@H](CO)[C@H](O)[C@H](O)[C@H]2NC(C)=O)NC(=O)CCCCCCC(=O)*)O[C@H](CO)[C@H](O)[C@@H]1O; Bip = N[C@@H](Cc1ccc(-c2ccccc2)cc1)C(=O)O; Levulinoyl = CC(=O)CCC(=O)*; NMeA = CN[C@@H](C)C(=O)O
Assays:
[1] = target: T1, human PCSK9 (Homo sapiens, UniProt Q8NBP7); test: SPR binding to biotinylated human PCSK9 (Proteon XPR36)
T1 construct: Purified recombinant full length human PCSK9 with C-terminal biotinylated Avitag
Method: SPR was used to obtain the binding data for PCSK9 receptor ligand compound (C5), either alone or as part of the bifunctional compounds (BFC1), respectively.
SPR Binding experiments were performed on a Proteon XPR36 instrument (Bio-Rad Laboratories). Purified recombinant full length human PCSK9 with C-terminal biotinylated Avitag was used for the assay. Biotinylated human PCSK9 was incubated with fivefold molar excess of bifunctional compound (BFC1) or compound (C5), and immobilized onto a Neutravidin coated sensor chip. (NLC chip, Bio-Rad Laboratories, Inc). After conditioning the chip by injecting running buffer (20 mM Tris pH7.5, 300 mM NaCl, 25 mM CaCl2, 2 mM betamercaptoethanol, 2% DMSO and 0.05% Tween-20) at a flow rate of 0.1 mL/min for 240 s, PCSK9 protein was injected at a protein concentration of 0.02 mg/ml in running buffer with fivefold molar excess of bifunctional compound and a flow rate of 0.03 mL/min followed by 4 washes with running buffer with 1 μM of bifunctional compound (0.1 mL/min for 60 seconds each).
To perform sandwich SPR binding assays, His-ASGPR1 (62-291) protein stocks were diluted with running buffer to a desired concentration. ASGPR was injected at a flow rate of 0.1 mL/min for 240 s and allowed to dissociate for 1200 s. Sensorgrams were recorded for association and dissociation phases. All sensorgrams were processed by subtracting the binding response recorded from a blank control surfaces (or interspot surfaces), followed by subtracting buffer blank injections from the reaction surface. Data were processed with the ProteOn Manager software (version 3.1.0.6, Bio-Rad, Inc.).

[2] = target: T2, human ASGPR1 (Homo sapiens, UniProt P07306); test: ASGPR1 SPR direct binding (Biacore, SA chip)
T2 construct: Recombinant extracellular domain of human ASGPR1 with N-terminal biotinylated Avitag
T2 sequence (P07306 62-291 limits assumed): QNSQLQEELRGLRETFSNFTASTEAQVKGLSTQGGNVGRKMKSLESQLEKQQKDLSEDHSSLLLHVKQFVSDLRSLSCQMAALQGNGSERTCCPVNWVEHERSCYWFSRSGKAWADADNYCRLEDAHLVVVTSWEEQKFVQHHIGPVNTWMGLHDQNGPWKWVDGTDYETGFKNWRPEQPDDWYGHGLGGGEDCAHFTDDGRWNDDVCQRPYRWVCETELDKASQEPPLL
Method: SPR was used to obtain the binding data for ASGP receptor ligand compound (int-CC2), either alone or as part of the bifunctional compounds (BFC-13), (BFC-15) and (BFC16).
(§1) ASGPR1 SPR experiments were performed on either Biacore T200 or Biacore 8K. The assay was optimized for Biacore (Streptavidin) SA chip in running buffer consisting of 20 mM HEPES, 300 mM NaCl, 2 mM CaCl2, 0.01% tween-20, 2% DMSO, pH 7.4. Recombinant extracellular domain of human ASGPR1 with N-terminal biotinylated Avitag was diluted to 20 μg/mL in running buffer, and immobilized onto SA chip after it was preconditioned with at least four 60-second injections at 30 uL/min of 1 M NaCl/40 mM NaOH solution. Protein immobilization level varied from 500 RU to 3500 RU dependent on analytes' molecular weight, for targeted Rmax of 30 RUs. Direct binding of analytes to ASGPR1 was observed when a dose response titration of analytes in 2% DMSO was flown over the immobilized protein. Data analysis was done on either Biacore T200 Evaluation Software or Biacore Insight Evaluation Software.
SPR was used to obtain the binding data for ASGP receptor ligand compounds (int-CC2), either alone or as part of the bifunctional compounds (BFC1).
as §1, with “Biacore” for “Biacore (Streptavidin)”

[3] = Bifunctional Compound (PCSK9 series), Table 9, read-out: ASGPR binding KD
[4] = Bifunctional Compound, SPR, read-out: PCSK9 KD
[5] = Free Ligand, SPR, read-out: PCSK9 KD

T1 sequence (Q8NBP7 153-692): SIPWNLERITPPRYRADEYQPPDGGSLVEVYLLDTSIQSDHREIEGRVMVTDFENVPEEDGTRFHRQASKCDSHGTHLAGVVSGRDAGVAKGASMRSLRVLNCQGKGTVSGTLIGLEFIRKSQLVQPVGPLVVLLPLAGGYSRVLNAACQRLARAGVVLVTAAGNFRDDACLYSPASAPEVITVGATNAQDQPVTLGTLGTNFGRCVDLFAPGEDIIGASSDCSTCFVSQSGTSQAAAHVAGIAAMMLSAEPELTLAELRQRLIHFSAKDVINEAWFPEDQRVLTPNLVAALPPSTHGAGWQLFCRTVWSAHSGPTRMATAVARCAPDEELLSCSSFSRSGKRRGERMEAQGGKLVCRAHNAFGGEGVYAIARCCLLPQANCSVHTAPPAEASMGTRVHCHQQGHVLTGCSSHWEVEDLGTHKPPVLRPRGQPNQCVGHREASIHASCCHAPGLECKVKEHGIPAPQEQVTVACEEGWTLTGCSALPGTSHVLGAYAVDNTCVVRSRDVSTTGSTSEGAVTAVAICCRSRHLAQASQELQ

| Kd [2, 3] | Kd [1, 4] | Structure (SMILES) | further results |
| --- | --- | --- | --- |
| 100 nM | 2.3 nM | COC[C@H]1NC(=O)[C@@H](CCCNC(=O)CCCCCCC(=O)NC(COCCC(=O)NCCCNC(=O)CCCCO[C@H]2O[C@@H](CO)[C@@H](O)[C@@H](O)[C@@H]2NC(C)=O)(COCCC(=O)NCCCNC(=O)CCCCO[C@H]2O[C@@H](CO)[C@@H](O)[C@@H](O)[C@@H]2NC(C)=O)COCCC(=O)NCCCNC(=O)CCCCO[C@H]2O[C@@H](CO)[C@@H](O)[C@@H](O)[C@@H]2NC(C)=O)N(Cc2ccc(Cl)cc2Oc2ccc(-c3cnc(CN(C)C)n3C)cc2)C(=O)C[C@H](Cc2ccccc2)C(=O)N(C)[C@@H]2CCCC[C@H]2NC(=O)C[C@@H](Cc2ccc(Cl)cc2)N(C)C1=O [BFC-10] | – |
| 0.32 nM | 3.9 nM | CC(=O)N[C@H]1[C@H](OCCCCC(=O)NCCCNCC(=O)CCOCC(COCCC(=O)NCCCNC(=O)CCCCO[C@@H]2O[C@H](CO)[C@H](O)[C@H](O)[C@H]2NC(C)=O)(COCCC(=O)NCCCNC(=O)CCCCO[C@@H]2O[C@H](CO)[C@H](O)[C@H](O)[C@H]2NC(C)=O)NC(=O)CCCCCCC(=O)NCCCC[C@H](NC(=O)CNC(=O)[C@@H]2CSCC(=O)N[C@@H](Cc3ccccc3)C(=O)N[C@@H](C(C)C)C(=O)N3CCC[C@H]3C(=O)N[C@@H]([C@@H](C)O)C(=O)N[C@@H]([C@@H](C)O)C(=O)N[C@@H](Cc3ccc(-c4ccccc4)cc3)C(=O)N(C)[C@@H](C)C(=O)N[C@@H](Cc3ccc(-c4ccccc4)cc3)C(=O)N(C)[C@@H](C)C(=O)N[C@@H](CCC(=O)O)C(=O)N[C@@H](C)C(=O)N3CCC[C@H]3C(=O)N2)C(N)=O)O[C@H](CO)[C@H](O)[C@@H]1O [BFC-1] ({CH2CO}-FVPTT[Bip][NMeA][Bip][NMeA]EAPCGK(X4)-NH2; thioether N-13) | – |
| < 1 nM | 5.8 nM | CC(=O)N[C@H]1[C@H]2OC[C@](COCCOCCOCCOCCn3cc(COCC(COCc4cn(CCOCCOCCOCCOC[C@@]56CO[C@@H](O5)[C@H](NC(C)=O)[C@@H](O)[C@H]6O)nn4)(COCc4cn(CCOCCOCCOCCOC[C@@]56CO[C@@H](O5)[C@H](NC(C)=O)[C@@H](O)[C@H]6O)nn4)NC(=O)CCOCCOCCOCCOCCC(=O)NCCCC[C@H](NC(=O)CNC(=O)[C@@H]4CSCC(=O)N[C@@H](Cc5ccccc5)C(=O)N[C@@H](C(C)C)C(=O)N5CCC[C@H]5C(=O)N[C@@H]([C@@H](C)O)C(=O)N[C@@H]([C@@H](C)O)C(=O)N[C@@H](Cc5ccc(-c6ccccc6)cc5)C(=O)N(C)[C@@H](C)C(=O)N[C@@H](Cc5ccc(-c6ccccc6)cc5)C(=O)N(C)[C@@H](C)C(=O)N[C@@H](CCC(=O)O)C(=O)N[C@@H](C)C(=O)N5CCC[C@H]5C(=O)N4)C(N)=O)nn3)(O2)[C@H](O)[C@@H]1O [BFC-6] | – |
| 22 nM | – | COC[C@@H]1NC(=O)[C@H](CCCNC(=O)CCOCCOCCOCCOCCC(=O)NCCOCc2cn(CCOCCOCCOCCOC[C@@]34CO[C@@H](O3)[C@H](NC(C)=O)[C@@H](O)[C@H]4O)nn2)N(Cc2ccc(Cl)cc2Oc2ccc(-c3cnc(CN(C)C)n3C)cc2)C(=O)C[C@@H](Cc2ccccc2)C(=O)N(C)[C@H]2CCCC[C@@H]2NC(=O)C[C@H](Cc2ccc(Cl)cc2)N(C)C1=O [BFC-12] | – |

Continued, compound first:

| Structure (SMILES) | Kd [2, 3] | Kd [1, 4] | further results |
| --- | --- | --- | --- |
| CC(C)[C@@H]1NC(=O)[C@H](Cc2ccccc2)NC(=O)CSC[C@@H](C(=O)NCC(=O)N[C@@H](CCCCNC(=O)OC[C@@H]2[C@@H]3CCc4c(nnn4CCCCCCO[C@H](O[C@@H](/C=N/OCC(=O)NNC(=O)CCCO[C@@H]4O[C@H](CO[C@H]5O[C@H](CO[C@H]6O[C@H](CO)[C@@H](O)[C@H](O)[C@@H]6O[C@H]6O[C@H](COP(=O)(O)O)[C@@H](O)[C@H](O)[C@@H]6O)[C@@H](O)[C@H](O)[C@@H]5O)[C@@H](O)[C@H](O[C@H]5O[C@H](CO)[C@@H](O)[C@H](O)[C@@H]5O[C@H]5O[C@H](COP(=O)(O)O)[C@@H](O)[C@H](O)[C@@H]5O)[C@@H]4O)CO)[C@H](O)/C=N\OCC(=O)NNC(=O)CCCO[C@@H]4O[C@H](CO[C@H]5O[C@H](CO[C@H]6O[C@H](CO)[C@@H](O)[C@H](O)[C@@H]6O[C@H]6O[C@H](COP(=O)(O)O)[C@@H](O)[C@H](O)[C@@H]6O)[C@@H](O)[C@H](O)[C@@H]5O)[C@@H](O)[C@H](O[C@H]5O[C@H](CO)[C@@H](O)[C@H](O)[C@@H]5O[C@H]5O[C@H](COP(=O)(O)O)[C@@H](O)[C@H](O)[C@@H]5O)[C@@H]4O)CC[C@@H]32)C(N)=O)NC(=O)[C@@H]2CCCN2C(=O)[C@H](C)NC(=O)[C@H](CCC(=O)O)NC(=O)[C@H](C)N(C)C(=O)[C@H](Cc2ccc(-c3ccccc3)cc2)NC(=O)[C@H](C)N(C)C(=O)[C@H](Cc2ccc(-c3ccccc3)cc2)NC(=O)[C@H]([C@@H](C)O)NC(=O)[C@H]([C@@H](C)O)NC(=O)[C@@H]2CCCN2C1=O [BFC-3] | – | – | Kd [1]: 7.7 nM |
| COC[C@@H]1NC(=O)[C@H](CCCN)N(Cc2ccc(Cl)cc2Oc2ccc(-c3cnc(CN(C)C)n3C)cc2)C(=O)C[C@@H](Cc2ccccc2)C(=O)N(C)[C@H]2CCCC[C@@H]2NC(=O)C[C@H](Cc2ccc(Cl)cc2)N(C)C1=O [C9, (4S,7S,10S,14R,16aS,20aS)-10-(3-aminopropyl)-14-benzyl-11-(4-chloro-2-(4-(2-((dimethylamino)methyl)-1-methyl-1H-imidazol-5-yl)phenoxy)benzyl)-4-(4-chlorobenzyl)-7-(methoxymethyl)-5,16-dimethylhexadecahydrobenzo[1][1,4,7,11,14]pentaazacyclooctadecine-2,6,9,12,15 (3H)-pentaone] | – | – | Kd [1, 5]: < 1 nM |
| CC(=O)N[C@H]1[C@H](OCCCCC(=O)NCCCNC(=O)CCOCC(N)(COCCC(=O)NCCCNC(=O)CCCCOC2O[C@H](CO)[C@H](O)[C@H](O)[C@H]2NC(C)=O)COCCC(=O)NCCCNC(=O)CCCCO[C@@H]2O[C@H](CO)[C@H](O)[C@H](O)[C@H]2NC(C)=O)O[C@H](CO)[C@H](O)[C@@H]1O (stereo partly drawn) [int-CC2, N,N′-(10-((3-((3-(5-(((3R,4R,5R,6R)-3-acetamido-4,5-dihydroxy-6-(hydroxymethyl)tetrahydro-2H-pyran-2-yl)oxy)pentanamido)propyl)amino)-3-oxopropoxy)methyl)-10-amino-5,15-dioxo-8,12-dioxa-4,16-diazanonadecane-1,19-diyl)bis(5-(((2R,3R,4R,5R,6R)-3-acetamido-4,5-dihydroxy-6-(hydroxymethyl)tetrahydro-2H-pyran-2-yl)oxy)pentanamide)] | – | – | Kd ([2]; Free Ligand, Table 7, read-out: ASGPR KD): 0.9 nM |
| CC(=O)CCC(=O)NCCCC[C@H](NC(=O)CNC(=O)[C@@H]1CSCC(=O)N[C@@H](Cc2ccccc2)C(=O)N[C@@H](C(C)C)C(=O)N2CCC[C@H]2C(=O)N[C@@H]([C@@H](C)O)C(=O)N[C@@H]([C@@H](C)O)C(=O)N[C@@H](Cc2ccc(-c3ccccc3)cc2)C(=O)N(C)[C@@H](C)C(=O)N[C@@H](Cc2ccc(-c3ccccc3)cc2)C(=O)N(C)[C@@H](C)C(=O)N[C@@H](CCC(=O)O)C(=O)N[C@@H](C)C(=O)N2CCC[C@H]2C(=O)N1)C(N)=O [C5] ({CH2CO}-FVPTT[Bip][NMeA][Bip][NMeA]EAPCGK(Levulinoyl)-NH2; thioether N-13) | – | – | Kd [1, 5]: 1.2 nM |

From patent publication US12605451B2, “Targeted plasma protein degradation” (Novartis AG, priority 2020, dated 2026)
